Data reported in paper PMC4997316, “A ruthenium polypyridyl intercalator stalls DNA replication forks, radiosensitizes human cancer cells and is enhanced by Chk1 inhibition” (Scientific Reports, 2016).
pIC50: −log10 of the molar value.

What was measured:
Calf thymus DNA = experiment: relative viscosity of DNA on addition of complex; type: binding; conditions: calf thymus DNA 4.19 × 10^−5 M, r 0-0.3
Procedure: The novel ruthenium(II) polypyridyl complexes [Ru(dppz)2(PIP)]^2+, 1, and [Ru(dppz)2(p-HPIP)]^2+, 2, (dppz = dipyrido[3,2-a:2′,3′-c]phenazine, PIP = (2-(phenyl)imidazo[4,5-f][1,10]phenanthroline) and p-HPIP ((2-(4-hydroxyphenyl)imidazo[4,5-f][1,10]phenanthroline)) were prepared by modification of reported synthetic pathways[17][30][31] and characterised by standard spectroscopic and analytical techniques (Figs S1–7 in the Supplementary Information). Evidence of a reversible binding interaction with DNA is provided by evidence of hypochromicity of the absorption spectra of 1 and 2 with increasing concentrations of DNA (Fig. S8). […] To investigate specific binding mode, relative viscosities of DNA with increasing concentrations of each complex were determined, where an increase in relative viscosity corresponds to the unwinding and lengthening of the DNA strand as a result of intercalation. […]
Calf thymus DNA, CT-DNA, (Sigma) was dissolved in NaCl (25 mm) and Tris (5 mm, pH 7.0) buffer and concentrations of determined spectroscopically (ε = 6600 dm^3 mol^−1cm^−1 at 260 nm). […] An equilibration time of 20 min was allowed before the flow times were recorded by Cannon–Manning semimicro viscometer (size 50) immersed in a thermostat bath (27 °C). Times were recorded in triplicate to within 0.1 second of each other and averaged values obtained.

[1] = system: HeLa cervical cancer cells; experiment: MTT proliferation assay, HeLa; type: cell-based, human; conditions: 24 h proliferation assay
Procedure: (§1) (LC3 = Microtubule-associated protein light chain 3) (Fig. 2b, bottom).
(§2) Cells were seeded in 96 well plates at 20,000 cells/well, allowed to proliferate for 24 h before treatment as described in the main text. 0.5 mg ml^−1 MTT (thiazolyl blue tetrazolium bromide) dissolved in serum-free media was added for 60 minutes and the formazan product eluted using acidified isopropanol. The absorbance at 540 nm was quantified by plate reader (reference wavelength 650 nm). The metabolic activity of the cell population was determined as a percentage of a negative (solvent) control.

MCF7 breast cancer cells = experiment: MTT proliferation assay, MCF7; type: cell-based, human; conditions: 24 h proliferation assay
Procedure: as §1, §2

[2] = system: primary human foreskin fibroblasts (HFF); experiment: MTT proliferation assay, HFF; type: cell-based; conditions: 24 h proliferation assay
Procedure: as §1, §2

HeLa cells = experiment: irradiation and clonogenic survival assay; type: cell-based, human; conditions: for DEF (dose enhancement factor): LD10 [without complex]/LD10 [with complex]; for Radiosensitivity (AUC): area under the survival curve, DMSO 3.83; for LD10: from regression of survival curves, DMSO 6.7; for radiation enhancement ratio (RER): radiosensitivity [without complex]/radiosensitivity [with complex]
Procedure: Chemotherapeutics are often used in combination with external beam ionising radiation in the treatment of cancers and many drugs that inhibit DNA replication are potent radiosensitizers. To examine the possibility that 1 may function as a radiosensitizer, HeLa cells were pre-treated with 1 for 20 h before irradiation (0–6 Gy ionising irradiation (IR); ^137Cs-γ-rays; dose rate = 0.809 Gy min^−1). After further incubation for 4 h with the complex, the relative impact on cell viability was assessed by clonogenic survival. Complex 2, which achieves its impact on cell proliferation through non-DNA damage-based autophagy, was included in parallel for comparison. […] The formation of γH2AX is an early response to IR-induced DSB generation and may provide an indication of DNA damage levels. […] These findings indicate increased levels of DNA damage at an early time point accompany the enhanced radiation-induced cell killing in HeLa cells radiosensitised by 1.
HeLa cells were pre-treated with DMSO, 1 or 2 for 20 h and irradiated using a ^137Cs γ-irradiator (IBL637, CIS Bio Int.; dose rate = 0.809 Gy min^−1). Solutions were removed 4 h after irradiation; cells detached using Trypsin and re-seeded in 6 well plates at a density of 1000 cells/well (in triplicate). Cells were incubated for 7–10 days after re-seeding to allow colony formation before being fixed with 10% methanol, 10% acetic acid and stained with 0.4% methylene blue. Colonies containing 50 cells or greater were counted using a Gelcount instrument and accompanying software (Oxford Optronix). Plating efficiencies were determined for each treatment condition and normalised to controls to provide the survival fraction. Resultant survival fraction (S.F.) versus radiation dose curves were fitted using a second order polynomial function (R^2 values > 0.99). […]
Table S2. Radiosensitization data for 1 and 2 in HeLa cells.
LD10 (Gy) DEF Radiosensitivity RER
Survival variables LD10 (10 % lethal dose) and radiosensitivity, which is expressed as the area under
the survival curve (AUC), derived from linear regression analyses of survival curves (R 2 values ≥
0.989 for all fits). Dose enhancement factor (DEF) = LD 10 [without complex]/LD10 [with complex].
Radiation enhancement ratio (RER) = radiosensitivity [without complex]/radiosensitivity [with

Structure (SMILES): [Ru+2].c1ccc(-c2nc3c4cccnc4c4ncccc4c3[nH]2)cc1.c1ccc2nc3c4cccnc4c4ncccc4c3nc2c1.c1ccc2nc3c4cccnc4c4ncccc4c3nc2c1 [Complex 1, [Ru(dppz)2(PIP)]^2+]
- relative viscosity of DNA (Calf thymus DNA): increase relative viscosity of DNA
- pIC50 [1]: 4.42
- pIC50 (MCF7 breast cancer cells): 4.55
- pIC50 [2]: < 4.00
- decrease in cell survival versus 6 Gy γ-rays alone (HeLa cells; 40 μM plus 6 Gy): 6.8 fold
- survival fraction (S.F.) with 6 Gy γ-rays (HeLa cells; 40 μM, 20 h before and 4 h after irradiation, 6 Gy alone 21.1 +/− 2%): 3.1 +/− 1%
- survival fraction (S.F.) in the absence of radiation (HeLa cells; 40 μM, 24 h): ~ 85%
- DEF (dose enhancement factor) (HeLa cells; 40 μM): 1.49
- Radiosensitivity (AUC) (HeLa cells; 40 μM): 2.59
- LD10 (HeLa cells; 40 μM): 4.5 Gy
- radiation enhancement ratio (RER) (HeLa cells; 40 μM): 1.48

Structure (SMILES): Oc1ccc(-c2nc3c4cccnc4c4ncccc4c3[nH]2)cc1.[Ru+2].c1ccc2nc3c4cccnc4c4ncccc4c3nc2c1.c1ccc2nc3c4cccnc4c4ncccc4c3nc2c1 [Complex 2, [Ru(dppz)2(p-HPIP)]^2+]
- relative viscosity of DNA (Calf thymus DNA): increase relative viscosity of DNA
- pIC50 [1]: 4.85
- pIC50 (MCF7 breast cancer cells): 4.92
- pIC50 [2]: < 4.00
- DEF (dose enhancement factor) (HeLa cells; 40 μM): 1.14
- Radiosensitivity (AUC) (HeLa cells; 40 μM): 3.39
- LD10 (HeLa cells; 40 μM): 5.9 Gy
- radiation enhancement ratio (RER) (HeLa cells; 40 μM): 1.13
